What all share (type): functional
Test [1] addresses Multidrug resistance protein CDR1 (Candida albicans, UniProt P43071). The test can be described thus: CaCdr1 efflux pump inhibitor potency, dose response, singleplex, Cherry Pick2 set (AID 623996). As to conditions: read-out: EC50_MICROM.
The target in test [2] is T1, High affinity choline transporter 1 (Homo sapiens, UniProt Q9GZV3).
T1 sequence (Q9GZV3 whole entry): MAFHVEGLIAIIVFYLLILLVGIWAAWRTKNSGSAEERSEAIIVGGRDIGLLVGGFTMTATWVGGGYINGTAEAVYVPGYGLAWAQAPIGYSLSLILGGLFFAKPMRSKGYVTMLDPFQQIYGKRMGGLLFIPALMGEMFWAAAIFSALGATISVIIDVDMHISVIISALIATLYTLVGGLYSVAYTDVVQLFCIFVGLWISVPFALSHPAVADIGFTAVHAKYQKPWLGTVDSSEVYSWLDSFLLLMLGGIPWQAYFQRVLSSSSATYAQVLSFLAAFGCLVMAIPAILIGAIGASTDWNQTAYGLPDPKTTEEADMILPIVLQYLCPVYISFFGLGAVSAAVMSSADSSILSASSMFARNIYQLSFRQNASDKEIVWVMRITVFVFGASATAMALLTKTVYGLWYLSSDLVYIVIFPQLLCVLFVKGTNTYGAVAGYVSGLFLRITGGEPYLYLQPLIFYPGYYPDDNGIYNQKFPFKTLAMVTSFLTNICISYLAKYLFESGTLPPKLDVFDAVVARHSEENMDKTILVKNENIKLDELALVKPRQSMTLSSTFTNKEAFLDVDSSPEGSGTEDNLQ
The test is described as follows: CHT activators, dose response, cell-based, 10-point CRC, membrane potential dye (AID 602376).

In test [3] the target is T2, Sentrin-specific protease 6 (Homo sapiens, UniProt Q9GZR1).
T2 sequence (Q9GZR1 whole entry): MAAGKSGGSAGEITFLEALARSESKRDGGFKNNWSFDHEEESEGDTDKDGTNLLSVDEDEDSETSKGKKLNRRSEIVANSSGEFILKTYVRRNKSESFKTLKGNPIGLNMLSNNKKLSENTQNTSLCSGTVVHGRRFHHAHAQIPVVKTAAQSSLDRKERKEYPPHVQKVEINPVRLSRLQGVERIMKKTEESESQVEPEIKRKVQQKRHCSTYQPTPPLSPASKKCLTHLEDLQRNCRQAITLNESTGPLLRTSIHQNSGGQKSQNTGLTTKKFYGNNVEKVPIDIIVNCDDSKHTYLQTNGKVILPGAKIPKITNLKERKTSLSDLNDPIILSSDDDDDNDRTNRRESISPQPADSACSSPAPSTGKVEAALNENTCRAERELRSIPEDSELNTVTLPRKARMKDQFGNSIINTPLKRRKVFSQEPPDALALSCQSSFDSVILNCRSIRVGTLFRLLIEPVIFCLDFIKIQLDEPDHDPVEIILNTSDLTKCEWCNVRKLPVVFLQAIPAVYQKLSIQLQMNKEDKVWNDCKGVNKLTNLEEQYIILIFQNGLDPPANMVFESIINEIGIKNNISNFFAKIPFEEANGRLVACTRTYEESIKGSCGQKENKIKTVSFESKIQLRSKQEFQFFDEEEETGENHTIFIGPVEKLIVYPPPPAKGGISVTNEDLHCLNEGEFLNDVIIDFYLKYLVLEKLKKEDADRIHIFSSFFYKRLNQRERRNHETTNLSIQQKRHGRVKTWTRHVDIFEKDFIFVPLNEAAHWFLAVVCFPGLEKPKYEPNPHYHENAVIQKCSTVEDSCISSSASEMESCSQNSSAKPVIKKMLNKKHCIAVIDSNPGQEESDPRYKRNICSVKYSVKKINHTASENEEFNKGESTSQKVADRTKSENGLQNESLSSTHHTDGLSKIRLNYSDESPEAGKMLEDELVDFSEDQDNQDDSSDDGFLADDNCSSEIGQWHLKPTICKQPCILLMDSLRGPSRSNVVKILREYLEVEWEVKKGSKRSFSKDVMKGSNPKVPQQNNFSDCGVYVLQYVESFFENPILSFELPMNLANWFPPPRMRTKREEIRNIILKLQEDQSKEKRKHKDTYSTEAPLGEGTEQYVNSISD
The test can be described thus: SENP6 protease inhibitors, SAR follow-up, biochemical, luminescence, set 2 (AID 588598).

Test [4] has as its target T3, Sentrin-specific protease 7 (Homo sapiens, UniProt Q9BQF6).
T3 sequence (Q9BQF6 whole entry): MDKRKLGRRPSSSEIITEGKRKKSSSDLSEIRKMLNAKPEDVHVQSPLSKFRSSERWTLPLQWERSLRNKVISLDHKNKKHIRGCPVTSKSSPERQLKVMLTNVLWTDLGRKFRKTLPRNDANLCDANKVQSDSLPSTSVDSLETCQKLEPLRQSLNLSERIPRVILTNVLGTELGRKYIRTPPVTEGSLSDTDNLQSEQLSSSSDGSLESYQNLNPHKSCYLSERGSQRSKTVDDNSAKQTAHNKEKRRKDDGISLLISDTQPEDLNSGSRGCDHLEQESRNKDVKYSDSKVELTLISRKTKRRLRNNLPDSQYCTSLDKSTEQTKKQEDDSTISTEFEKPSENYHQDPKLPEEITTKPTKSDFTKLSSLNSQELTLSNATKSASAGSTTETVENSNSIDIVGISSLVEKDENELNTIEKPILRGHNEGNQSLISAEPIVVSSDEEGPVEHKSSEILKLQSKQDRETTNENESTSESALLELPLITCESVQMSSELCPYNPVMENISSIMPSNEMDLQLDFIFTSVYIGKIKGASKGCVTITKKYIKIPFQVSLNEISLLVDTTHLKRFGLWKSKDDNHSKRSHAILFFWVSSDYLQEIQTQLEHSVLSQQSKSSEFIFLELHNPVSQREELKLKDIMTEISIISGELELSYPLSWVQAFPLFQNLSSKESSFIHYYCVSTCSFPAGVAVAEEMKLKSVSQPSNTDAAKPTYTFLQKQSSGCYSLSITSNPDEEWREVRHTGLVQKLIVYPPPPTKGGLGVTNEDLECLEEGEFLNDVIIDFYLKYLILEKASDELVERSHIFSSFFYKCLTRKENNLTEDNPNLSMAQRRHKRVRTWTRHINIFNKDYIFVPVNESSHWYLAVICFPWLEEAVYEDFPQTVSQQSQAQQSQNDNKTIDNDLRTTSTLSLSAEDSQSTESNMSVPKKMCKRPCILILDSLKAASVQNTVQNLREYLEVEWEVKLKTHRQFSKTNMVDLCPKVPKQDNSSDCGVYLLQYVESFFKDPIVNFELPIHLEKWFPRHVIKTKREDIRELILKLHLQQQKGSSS
The test can be described thus: SENP7 protease inhibitors, SAR follow-up, biochemical, luminescence, set 2 (AID 588600).

The target in test [5] is T4, Sentrin-specific protease 8 (Homo sapiens, UniProt Q96LD8).
T4 sequence (Q96LD8 whole entry): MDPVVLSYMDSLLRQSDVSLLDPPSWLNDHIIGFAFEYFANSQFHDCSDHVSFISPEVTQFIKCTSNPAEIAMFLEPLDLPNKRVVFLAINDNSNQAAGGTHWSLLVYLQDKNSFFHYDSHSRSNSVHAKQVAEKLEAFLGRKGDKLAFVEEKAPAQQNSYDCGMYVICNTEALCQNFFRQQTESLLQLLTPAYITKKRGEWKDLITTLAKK
The test can be described thus: SENP8 protease inhibitors, SAR follow-up, biochemical, luminescence, set 2 (AID 588601).

Test [6] concerns the target T5, Caspase-3 (Homo sapiens, UniProt P42574).
T5 sequence (P42574 whole entry): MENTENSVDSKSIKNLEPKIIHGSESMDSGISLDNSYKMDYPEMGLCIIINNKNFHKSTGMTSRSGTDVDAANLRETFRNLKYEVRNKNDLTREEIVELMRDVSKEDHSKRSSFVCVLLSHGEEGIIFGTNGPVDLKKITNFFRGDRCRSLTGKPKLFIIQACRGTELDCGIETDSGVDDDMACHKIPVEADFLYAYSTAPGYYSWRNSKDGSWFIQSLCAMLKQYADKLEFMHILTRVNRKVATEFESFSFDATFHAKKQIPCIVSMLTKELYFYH
The test is described as follows: caspase-3 inhibitors as off-family protease, SAR follow-up, selectivity assay for SENP protease inhibitor project, biochemical, luminescence, set 2 (AID 588599).

Test [7] addresses Glycogen synthase kinase-3 alpha (Homo sapiens, UniProt P49840).
For test [8], the target named is Mitogen-activated protein kinase kinase kinase kinase 4 (Homo sapiens, UniProt O95819).
The target of test [9] is Apoptotic protease-activating factor 1 (Homo sapiens, UniProt O14727).
For test [10], the target named is T6, Ubiquitin-conjugating enzyme E2 N (Homo sapiens, UniProt P61088).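 Also: Dose-response confirmation in a TR-FRET assay detecting UBC13-driven polyubiquitin chain formation, inhibition measured.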
T6 sequence (P61088 whole entry): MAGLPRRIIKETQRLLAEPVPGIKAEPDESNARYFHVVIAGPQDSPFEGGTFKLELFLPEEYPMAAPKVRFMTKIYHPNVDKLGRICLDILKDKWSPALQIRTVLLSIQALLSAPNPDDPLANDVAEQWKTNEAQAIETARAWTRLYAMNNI

Test [11] addresses Glycogen synthase kinase-3 beta (Homo sapiens, UniProt P49841).
Test [12] deals with Interleukin-1 receptor-associated kinase 4 (Homo sapiens, UniProt Q9NWZ3).
Test [13] addresses Cell division cycle 7-related protein kinase (Homo sapiens, UniProt O00311).
For test [14], the target named is Dual specificity protein kinase CLK4 (Homo sapiens, UniProt Q9HAZ1).
The target of test [15] is MAP kinase-interacting serine/threonine-protein kinase 2 (Homo sapiens, UniProt Q9HBH9).
Test [16] deals with cAMP-dependent protein kinase catalytic subunit alpha (Homo sapiens, UniProt P17612).
The target in test [17] is Serine/threonine-protein kinase pim-1 (Homo sapiens, UniProt P11309).
The target in test [18] is Homeodomain-interacting protein kinase 2 (Homo sapiens, UniProt Q9H2X6).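 Also: measured within a kinome-wide kinase profiling panel, HIPK2 being one panel member.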
The target of test [19] is T5, Caspase-3. The test can be described thus: SAR Analysis of small molecule inhibitors of Sentrin-specific proteases (SENPs) using a Caspase-3 Selectivity assay. [Related pubchem assays (depositor defined):AID2540, AID2599, AID434973, AID489001].
The target in test [20] is T2, Sentrin-specific protease 6. The test is described as follows: SAR Analysis of small molecule inhibitors of Sentrin-specific protease 6 (SENP6) using a Luminescent assay. [Related pubchem assays (depositor defined):AID2582, AID2599].
The target of test [21] is T3, Sentrin-specific protease 7. The test can be described thus: SENP7 protease inhibitors, SAR follow-up, biochemical, luminescence (AID 504497).
Test [22] concerns the target T4, Sentrin-specific protease 8. The test is described as follows: SENP8 protease inhibitors, SAR follow-up, biochemical, luminescence (AID 504501).

The source made the active and inactive calls.

Chain of Mitogen-activated protein kinase kinase kinase kinase 4 (O95819 whole entry): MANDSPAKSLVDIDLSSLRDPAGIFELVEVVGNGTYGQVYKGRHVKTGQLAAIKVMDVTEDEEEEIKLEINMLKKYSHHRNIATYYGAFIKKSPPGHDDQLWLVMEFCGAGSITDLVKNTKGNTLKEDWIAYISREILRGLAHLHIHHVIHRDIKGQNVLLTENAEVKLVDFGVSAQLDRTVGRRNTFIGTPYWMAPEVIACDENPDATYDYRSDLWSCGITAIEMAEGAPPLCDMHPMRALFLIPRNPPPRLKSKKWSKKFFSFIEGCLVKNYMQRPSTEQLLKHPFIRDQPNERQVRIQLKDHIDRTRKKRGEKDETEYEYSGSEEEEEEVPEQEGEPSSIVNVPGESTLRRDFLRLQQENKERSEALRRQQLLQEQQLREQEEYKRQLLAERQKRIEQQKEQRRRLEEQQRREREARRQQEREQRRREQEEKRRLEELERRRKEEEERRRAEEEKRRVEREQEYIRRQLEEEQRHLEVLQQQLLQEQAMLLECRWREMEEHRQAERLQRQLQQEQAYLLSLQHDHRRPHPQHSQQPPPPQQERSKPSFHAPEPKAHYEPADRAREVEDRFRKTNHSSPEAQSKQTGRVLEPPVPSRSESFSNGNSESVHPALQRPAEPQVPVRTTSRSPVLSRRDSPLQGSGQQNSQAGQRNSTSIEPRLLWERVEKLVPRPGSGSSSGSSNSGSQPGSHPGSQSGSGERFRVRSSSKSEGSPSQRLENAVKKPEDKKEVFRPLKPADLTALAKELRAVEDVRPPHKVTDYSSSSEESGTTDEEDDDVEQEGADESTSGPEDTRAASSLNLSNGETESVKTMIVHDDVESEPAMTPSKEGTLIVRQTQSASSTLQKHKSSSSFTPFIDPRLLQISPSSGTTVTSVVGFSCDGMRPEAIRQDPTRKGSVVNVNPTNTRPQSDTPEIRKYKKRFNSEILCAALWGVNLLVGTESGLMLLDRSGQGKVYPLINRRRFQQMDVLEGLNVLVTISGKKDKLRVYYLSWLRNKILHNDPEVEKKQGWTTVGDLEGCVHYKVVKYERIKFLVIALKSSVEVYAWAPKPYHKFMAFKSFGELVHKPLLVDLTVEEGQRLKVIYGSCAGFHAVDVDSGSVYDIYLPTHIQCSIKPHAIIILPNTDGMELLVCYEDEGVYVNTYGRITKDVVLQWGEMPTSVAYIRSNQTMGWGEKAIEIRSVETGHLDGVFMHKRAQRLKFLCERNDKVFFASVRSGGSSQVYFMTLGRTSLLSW
Chain of Cell division cycle 7-related protein kinase (O00311 whole entry): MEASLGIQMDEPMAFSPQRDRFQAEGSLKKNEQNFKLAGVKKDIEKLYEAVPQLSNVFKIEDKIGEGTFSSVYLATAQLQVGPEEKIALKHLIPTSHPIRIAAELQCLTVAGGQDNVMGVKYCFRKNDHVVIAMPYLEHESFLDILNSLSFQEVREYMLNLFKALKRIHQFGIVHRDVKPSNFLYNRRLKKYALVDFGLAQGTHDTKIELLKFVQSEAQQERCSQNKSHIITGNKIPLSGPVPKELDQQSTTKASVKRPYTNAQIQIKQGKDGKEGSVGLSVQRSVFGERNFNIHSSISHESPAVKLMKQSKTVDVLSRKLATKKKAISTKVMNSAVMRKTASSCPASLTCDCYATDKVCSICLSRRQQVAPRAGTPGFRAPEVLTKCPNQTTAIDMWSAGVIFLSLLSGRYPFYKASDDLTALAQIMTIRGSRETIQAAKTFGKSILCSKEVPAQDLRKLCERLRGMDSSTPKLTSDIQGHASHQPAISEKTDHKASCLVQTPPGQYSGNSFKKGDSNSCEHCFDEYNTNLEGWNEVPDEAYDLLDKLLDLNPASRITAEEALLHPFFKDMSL
Chain of MAP kinase-interacting serine/threonine-protein kinase 2 (Q9HBH9 whole entry): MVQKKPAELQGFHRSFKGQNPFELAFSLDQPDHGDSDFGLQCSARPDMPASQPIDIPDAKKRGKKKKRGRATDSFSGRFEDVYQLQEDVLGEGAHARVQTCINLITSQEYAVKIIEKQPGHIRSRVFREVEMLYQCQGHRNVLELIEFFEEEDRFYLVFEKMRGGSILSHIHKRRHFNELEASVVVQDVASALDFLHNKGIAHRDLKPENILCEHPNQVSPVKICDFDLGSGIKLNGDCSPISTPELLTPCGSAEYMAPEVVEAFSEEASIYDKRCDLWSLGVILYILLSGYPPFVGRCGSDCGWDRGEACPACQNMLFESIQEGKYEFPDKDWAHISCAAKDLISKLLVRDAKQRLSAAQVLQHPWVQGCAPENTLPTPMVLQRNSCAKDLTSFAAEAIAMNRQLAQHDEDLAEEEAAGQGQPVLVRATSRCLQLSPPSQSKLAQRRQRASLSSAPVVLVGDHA
Chain of Serine/threonine-protein kinase pim-1 (P11309 whole entry): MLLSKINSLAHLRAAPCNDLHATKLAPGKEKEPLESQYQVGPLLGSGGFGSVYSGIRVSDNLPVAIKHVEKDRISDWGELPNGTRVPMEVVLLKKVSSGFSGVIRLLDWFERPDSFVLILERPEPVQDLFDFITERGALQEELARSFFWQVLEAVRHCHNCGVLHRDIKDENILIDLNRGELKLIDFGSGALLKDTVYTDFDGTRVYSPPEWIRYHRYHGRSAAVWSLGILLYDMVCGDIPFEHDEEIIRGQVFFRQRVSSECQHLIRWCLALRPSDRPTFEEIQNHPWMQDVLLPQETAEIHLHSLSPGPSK
Chain of Homeodomain-interacting protein kinase 2 (Q9H2X6 whole entry): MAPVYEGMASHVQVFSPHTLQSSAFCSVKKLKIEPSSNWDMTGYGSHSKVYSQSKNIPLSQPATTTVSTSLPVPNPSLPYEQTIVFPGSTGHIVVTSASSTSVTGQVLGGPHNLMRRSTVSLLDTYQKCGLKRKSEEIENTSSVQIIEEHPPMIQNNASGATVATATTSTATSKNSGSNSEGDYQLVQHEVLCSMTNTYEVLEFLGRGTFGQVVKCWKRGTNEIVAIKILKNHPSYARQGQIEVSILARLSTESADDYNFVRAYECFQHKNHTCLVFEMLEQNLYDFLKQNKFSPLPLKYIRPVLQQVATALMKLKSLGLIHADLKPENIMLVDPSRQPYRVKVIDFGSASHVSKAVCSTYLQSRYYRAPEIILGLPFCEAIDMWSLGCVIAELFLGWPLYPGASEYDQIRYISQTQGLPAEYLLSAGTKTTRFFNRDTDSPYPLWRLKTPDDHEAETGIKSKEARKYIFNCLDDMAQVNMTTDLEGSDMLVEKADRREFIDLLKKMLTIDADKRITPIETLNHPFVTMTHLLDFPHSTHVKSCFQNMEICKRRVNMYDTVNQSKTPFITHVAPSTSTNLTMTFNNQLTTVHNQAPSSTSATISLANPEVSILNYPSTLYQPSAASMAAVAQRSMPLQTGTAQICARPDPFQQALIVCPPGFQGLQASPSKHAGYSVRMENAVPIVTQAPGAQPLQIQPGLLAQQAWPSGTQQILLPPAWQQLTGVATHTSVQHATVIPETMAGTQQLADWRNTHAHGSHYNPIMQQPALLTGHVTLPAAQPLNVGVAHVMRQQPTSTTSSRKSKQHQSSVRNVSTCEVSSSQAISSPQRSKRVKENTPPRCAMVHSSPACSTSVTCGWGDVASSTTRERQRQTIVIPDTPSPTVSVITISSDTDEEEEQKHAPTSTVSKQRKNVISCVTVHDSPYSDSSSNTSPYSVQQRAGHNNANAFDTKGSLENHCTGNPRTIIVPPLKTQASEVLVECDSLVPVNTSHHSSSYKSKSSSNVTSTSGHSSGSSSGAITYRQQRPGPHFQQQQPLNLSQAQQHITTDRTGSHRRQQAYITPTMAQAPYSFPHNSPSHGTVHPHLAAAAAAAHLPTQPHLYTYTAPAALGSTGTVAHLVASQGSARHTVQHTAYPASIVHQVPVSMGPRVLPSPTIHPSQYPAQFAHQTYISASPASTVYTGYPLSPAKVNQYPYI
Chain of Glycogen synthase kinase-3 beta (P49841 whole entry): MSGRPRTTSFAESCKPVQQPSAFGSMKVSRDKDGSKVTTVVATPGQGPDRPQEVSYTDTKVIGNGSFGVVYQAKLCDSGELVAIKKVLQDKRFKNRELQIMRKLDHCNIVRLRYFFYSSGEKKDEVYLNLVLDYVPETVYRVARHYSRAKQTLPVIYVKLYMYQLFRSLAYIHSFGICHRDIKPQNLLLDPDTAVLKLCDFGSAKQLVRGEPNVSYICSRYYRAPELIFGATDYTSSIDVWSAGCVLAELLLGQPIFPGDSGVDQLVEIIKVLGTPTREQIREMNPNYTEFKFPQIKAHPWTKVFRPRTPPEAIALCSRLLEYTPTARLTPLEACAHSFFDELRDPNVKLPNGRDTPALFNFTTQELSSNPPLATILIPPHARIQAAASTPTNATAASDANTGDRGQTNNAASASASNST
Chain of Dual specificity protein kinase CLK4 (Q9HAZ1 whole entry): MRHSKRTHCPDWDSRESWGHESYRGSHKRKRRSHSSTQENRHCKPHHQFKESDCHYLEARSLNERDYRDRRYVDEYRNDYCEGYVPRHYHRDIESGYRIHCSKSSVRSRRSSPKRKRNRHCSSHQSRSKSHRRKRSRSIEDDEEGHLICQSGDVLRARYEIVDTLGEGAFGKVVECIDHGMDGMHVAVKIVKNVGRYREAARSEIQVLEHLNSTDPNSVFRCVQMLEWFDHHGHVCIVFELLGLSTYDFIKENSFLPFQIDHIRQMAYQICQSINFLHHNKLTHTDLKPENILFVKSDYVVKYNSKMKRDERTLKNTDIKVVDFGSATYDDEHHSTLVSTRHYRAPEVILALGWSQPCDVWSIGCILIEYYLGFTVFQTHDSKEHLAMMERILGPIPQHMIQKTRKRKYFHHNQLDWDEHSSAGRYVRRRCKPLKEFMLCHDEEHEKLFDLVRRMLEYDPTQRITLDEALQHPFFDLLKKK

Consider `COc1ccc2c(c1)OC[C@H]1[C@H]2N2C(=O)c3ccc(C)cc3NC(=O)[C@@]2(C)[C@H]1c1ccccc1`, for which the EC50 in test [1] is 17.3 µM (active).

With `CCCCNC(=O)COCc1cc(-c2ccc3c(c2)OCO3)on1`, the EC50 in test [2] was 8.04 µM (active).

Take `O=C(C(=O)N1CCCc2ccccc21)c1c[nH]c2ccccc12`: the IC50 (in [3]; in test [4]; in test [5]; on Caspase-3 [6]) was > 99 µM (inactive) each time.

Consider `Cc1cc(O)nc2[nH]nc(-c3cccc(-c4cccc(C#N)c4)c3)c12`, for which the Ki in [7] was 3.16 µM (active); in [8], 5.01 µM (active).

With `COc1ccccc1C(CNC(=O)CNC(=O)c1ccccc1Cl)N1CCCC1` (stereo not drawn), the values for the IC50 in [9] and in test [10] were > 100 µM (inactive) and > 20 µM (inactive), respectively.

Turning to `NC(=O)c1ccc(-c2ccncc2)cc1NCc1cccc(F)c1`, the Ki in [11] was 0.794 µM (active); in test [12], > 10 µM (inactive); in [13], 0.158 µM (active); in [14], 0.1 µM (active); in test [15], > 10 µM (inactive); in test [16] it was > 7.94 µM (inactive). The Ki was 2 µM (active) in test [8], 7.94 µM (active) in [17] and > 3.16 µM (inactive) in test [18].

On to `CS(=O)(=O)c1ccc2nc(NC(=O)c3c(F)cccc3F)sc2c1`, for which the IC50 (on Caspase-3 [19]; in [20]; in [21]; in [22]) was > 99 µM (inactive) throughout.

One may read the IC50 as the point on the concentration scale where inhibition reaches its midpoint. Usually Ki stands for a dissociation constant, usually derived from enzyme kinetics or from competition with a known ligand.

Source of the values: ChEMBL document CHEMBL1201862, “PubChem BioAssay data set” (2004).
